Converted amounts (≈) assume the structure as drawn.
How the values were obtained:
Sortase A = biological target: T1, Sortase A (Staphylococcus aureus, UniProt Q9S446); assay: Inhibitory activity against Sortase A from Staphylococcus aureus
T1 sequence (Q9S446 whole entry): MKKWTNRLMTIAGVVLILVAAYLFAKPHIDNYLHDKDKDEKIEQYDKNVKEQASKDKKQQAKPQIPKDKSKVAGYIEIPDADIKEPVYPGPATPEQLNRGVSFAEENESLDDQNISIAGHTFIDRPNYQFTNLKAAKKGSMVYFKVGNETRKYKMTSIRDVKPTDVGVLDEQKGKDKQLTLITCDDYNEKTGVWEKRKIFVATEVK

Staphylococcus aureus = assay: Minimum inhibitory concentration against Staphylococcus aureus Newman strain; type: functional

| Structure (SMILES) | IC50 (Sortase A) | MIC (Staphylococcus aureus) |
| --- | --- | --- |
| O=C(c1ncc(-c2c[nH]c3cc(Br)ccc23)[nH]1)c1c[nH]c2ccccc12 [BROMODEOXYTOPSENTIN] | 48 µM | – |
| O=C1N[C@H](c2c[nH]c3cc(Br)ccc23)CN=C1c1c[nH]c2cc(Br)ccc12 | 178 µM | 3.12 µg/mL (≈ 6.42 µM) |
| O=C1N[C@H](c2c[nH]c3cc(Br)ccc23)CN=C1c1c[nH]c2ccccc12 | 83.6 µM | 6.25 µg/mL (≈ 15.3 µM) |
| O=C1NC[C@@H](c2c[nH]c3cc(Br)ccc23)N=C1c1c[nH]c2ccccc12 [(R)-6'-DEBROMOHAMACANTHIN B] | > 246 µM | 100 µg/mL (≈ 246 µM) |
| CC[C@H](CC[C@@H](C)[C@H]1CC[C@H]2[C@@H]3CC=C4C[C@@H](O[C@@H]5O[C@H](CO)[C@@H](O)[C@H](O)[C@H]5O)CC[C@]4(C)[C@H]3CC[C@]12C)C(C)C [SITOGLUSIDE] | 31.7 µM | 200 µg/mL (≈ 347 µM) |
| O=C(c1nc(-c2c[nH]c3ccccc23)c[nH]1)c1c[nH]c2ccccc12 [DEOXYTOPSENTIN] | 48 µM | – |
| O=C(c1nc(-c2c[nH]c3cc(Br)ccc23)c[nH]1)c1c[nH]c2cc(O)ccc12 [BROMOTOPSENTIN] | 39.6 µM | 25 µg/mL (≈ 59.3 µM) |
| O=C1N[C@@H](c2c[nH]c3cc(Br)ccc23)CN[C@@H]1c1c[nH]c2cc(Br)ccc12 | > 205 µM | 12.5 µg/mL (≈ 25.6 µM) |
| O=C1NC[C@@H](c2c[nH]c3cc(Br)ccc23)N=C1c1c[nH]c2cc(Br)ccc12 | 142 µM | 6.25 µg/mL (≈ 12.9 µM) |
